In US20210261538A1, “PROTEIN ARGININE METHYLTRANSFERASE 5 (PRMT5) DEGRADATION / DISRUPTION COMPOUNDS AND METHODS OF USE” (ICAHN SCHOOL OF MEDICINE AT MOUNT SINAI, priority 2018, published 2021):
“Also recorded” adds a separate entry of the source.

Key:
PRMT5 [1] = molecular target: T1, PRMT5 (Homo sapiens, UniProt O14744); experiment: Western blot of PRMT5 protein levels in 293T cells; type: cell-based; set-up: endogenous in cells; host or cells: 293T (HEK293T); settings: 5 μM, 6 days
Procedure: (§1) MCF-7 cells, HEK293T cells and HeLa cells were cultured in Dulbecco's Modified Eagle Medium (DMEM) supplemented with 10% fetal bovine serum (FBS) in 5% CO2 at 37° C. Jurkat cells were cultured in RPMI 1640 medium supplemented with 10% FBS in 5% CO2 at 37° C. H2171 cells were cultured in HITES medium supplemented with 10% FBS in 5% CO2 at 37° C. HCT116 were cultured in McCoy's 5A medium supplemented with 10% fetal bovine serum (FBS) in 5% CO2 at 37° C. All the cells lines were treated with 5 μM (or indicated concentration) of PRMT5 inhibitor (EPZ015666) or degraders, or equivalent volume of DMSO for 6 days (or indicated time points). Fresh compounds were constituted in medium and used for every 2 days. The antibodies used in this study are: PRMT5 antibody (Active Motif), (3-actin antibody (Sigma), SDMA antibody (collaboration with Cell Signaling Technologies). Cell cultures were harvested at the end of compound treatments and applied subjected to western blotting assay. Briefly, cells were washed with PBS and lysed with RIPA lysis buffer for 20 minutes on ice. Then lysates were centrifuged and the clear supernatant were collected. SDS loading buffer was added to the lysates and then the mixture was boiled at 100° C. for 5 minutes. Samples were loaded to 10% or 12% SDS-PAGE gel and ran at 120V for 1.5 hours. […]

MCF-7 cells = experiment: Cell proliferation assay (Cell-Titer Glo) in MCF-7 cells; type: cell-based; settings: 5 μM, 10 days
Procedure: The same starting number of MCF-7 cells were treated with DMSO, 5 μM EPZ015666 or YS43-22 for up to 10 days. Every two days, fresh compounds were constituted in DMEM medium and added to the cell culture. Relative cell numbers were counted every two days (i.e. day 0, 2, 4, 6, 8 and 10) using Cell-Titer Glo kit (Promega). MCF-7 cells were treated with DMSO, EPZ015666 (5 μM), or YS43-22 (5 μM) for 10 days.

PRMT5 [2] = molecular target: T1, PRMT5; experiment: Western blot of PRMT5 protein levels in HCT116 cells; type: cell-based; set-up: endogenous in cells; settings: 5 μM, 6 days
Procedure: as §1

PRMT5 [3] = molecular target: T1, PRMT5; experiment: Western blot of PRMT5 protein levels in HeLa cells; type: cell-based; set-up: endogenous in cells; settings: 5 μM, 6 days
Procedure: as §1

PRMT5 [4] = molecular target: T1, PRMT5; experiment: Western blot of PRMT5 protein levels in multiple cell lines; type: cell-based; set-up: endogenous in cells; host or cells: MCF-7; settings: MCF-7, Hela, Jurkat, HCT116, 293T and H2171 cells, 5 μM, 6 days
Procedure: as §1

[5] = Standard PK study in mice; type: in vivo, male Swiss Albino mice; settings: single 150 mg/kg IP injection
Procedure: Standard PK studies were conducted using male Swiss Albino mice. A single 150 mg/kg intraperitoneal (IP) injection of YS43-22 was evaluated. Plasma concentrations of YS43-22 reported at each of the six time points (15 min, 30 min, 1 h, 2 h, 6 h, and 12 h post dosing) are the average values from 3 test animals.

T1 sequence (O14744 whole entry): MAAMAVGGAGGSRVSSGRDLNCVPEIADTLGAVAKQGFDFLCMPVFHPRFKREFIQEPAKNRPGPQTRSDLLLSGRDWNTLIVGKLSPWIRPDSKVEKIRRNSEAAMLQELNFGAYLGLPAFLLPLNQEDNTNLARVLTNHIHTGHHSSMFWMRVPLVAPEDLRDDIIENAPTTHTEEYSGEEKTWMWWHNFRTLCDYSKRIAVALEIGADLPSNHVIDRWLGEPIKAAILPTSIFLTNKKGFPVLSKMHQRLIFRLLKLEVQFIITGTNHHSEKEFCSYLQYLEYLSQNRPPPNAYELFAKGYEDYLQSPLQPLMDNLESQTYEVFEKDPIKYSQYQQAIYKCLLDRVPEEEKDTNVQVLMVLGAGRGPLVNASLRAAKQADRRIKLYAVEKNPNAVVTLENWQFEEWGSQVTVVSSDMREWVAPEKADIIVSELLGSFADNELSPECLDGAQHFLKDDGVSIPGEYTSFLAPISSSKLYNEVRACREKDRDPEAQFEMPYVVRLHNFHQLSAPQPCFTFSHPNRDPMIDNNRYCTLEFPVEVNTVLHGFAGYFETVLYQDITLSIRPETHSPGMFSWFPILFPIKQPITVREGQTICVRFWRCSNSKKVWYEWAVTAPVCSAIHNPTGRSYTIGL
T1 sequence (Q9BQA1 whole entry partner): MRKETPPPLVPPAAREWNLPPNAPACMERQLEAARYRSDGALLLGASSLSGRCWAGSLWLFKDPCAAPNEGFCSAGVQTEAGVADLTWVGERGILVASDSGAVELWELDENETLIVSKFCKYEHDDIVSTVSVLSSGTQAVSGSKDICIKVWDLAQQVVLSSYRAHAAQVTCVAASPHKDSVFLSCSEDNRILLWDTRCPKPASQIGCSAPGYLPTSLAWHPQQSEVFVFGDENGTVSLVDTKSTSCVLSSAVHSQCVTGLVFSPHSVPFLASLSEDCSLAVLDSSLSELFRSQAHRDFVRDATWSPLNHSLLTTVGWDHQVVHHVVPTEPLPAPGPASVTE

- PRMT5 protein levels (PRMT5 [1]): slightly
- PRMT5 protein levels (PRMT5 [2]): slightly
- PRMT5 protein levels (PRMT5 [3]): moderately
- PRMT5 protein levels in different cell lines (PRMT5 [4]): significantly reduced
- relative potency in down-regulation of PRMT5 protein levels (PRMT5 [4]): more potent than YS43-8
- clinical observations [5]: no abnormal clinical observations
- bioavailability (plasma concentrations) ([5]; 15 min to 12 h post dosing, 150 mg/kg): Bioavailable
Compound: Cc1ncsc1-c1ccc([C@H](C)NC(=O)[C@@H]2C[C@@H](O)CN2C(=O)[C@@H](NC(=O)COCCOCCOCCOCCOCC(=O)N2CC(Nc3cc(C(=O)NC[C@H](O)CN4CCc5ccccc5C4)ncn3)C2)C(C)(C)C)cc1 [YS43-22, N-((S)-3-(3,4-dihydroisoquinolin-2(1H)-yl)-2-hydroxypropyl)-6-((1-((S)-19-((2S,4R)-4-hydroxy-2-(((S)-1-(4-(4-methylthiazol-5-yl)phenyl)ethyl)carbamoyl)pyrrolidine-1-carbonyl)-20,20-dimethyl-17-oxo-3,6,9,12,15-pentaoxa-18-azahenicosanoyl)azetidin-3-yl)amino)pyrimidine-4-carboxamide]
- cell growth of MCF-7 cells (MCF-7 cells): significantly reduced; also recorded: significant potency; also recorded: significantly inhibited
